Patent publication US11498896B2 (The Broad Institute, Inc., priority 2014, dated 2022)

Legend:
[1] = biological target: T1, human D2R/β-arrestin (Homo sapiens (Human), UniProt P14416); test: β-arrestin agonist assay (PathHunter); format: cell-based; conditions: CHO-K1 cells expressing human D2R/β-arrestin; agonist mode
Description: The detection reagent (9.6 μL, Buffer:Emerald II:Galactor-Star in a 19:5:1 ratio, i.e., 14.06 mL:3.7 mL:0.74 mL=18.5 mL) was then added to the agonist plates.

[2] = biological target: T1, human D2R/β-arrestin; test: cell-based; conditions: cAMP Antagonist
[3] = biological target: T1, human D2R/β-arrestin; test: cell-based; conditions: β-arrestin Antagonist
Description: Cells were prepared for assays by growing cultures for up to 2 weeks (from about 6-20 passages). A vial of frozen cells was thawed in a water bath held at 37° C. The cells were then transferred into a 50 ml tube with 10 ml growth media. The vial was rinsed with growth media and the contents transferred to the 50 ml tube. The 50 ml tube was centrifuged at 1200 rpm for 5 minutes at room temperature. […] When the cells reached about 90% confluence (approximately 3 days between passages), the cells were passaged and used for either the agonist or antagonist assays as described below.
The cells were prepared for β-arrestin assays as described above. The assays were performed using a PathHunter® β-Arrestin Detecting Kit (DiscoveRX). The cells were grown on 225 mm dishes, then washed once with 1×PBS (Cellgro), followed by digestion with 2.5 ml 1× Detachment reagent (DRX 92-0009) for approximately 2 minutes.

[4] = biological target: T1, human D2R/β-arrestin; test: Gi/cAMP agonist assay (Lance Ultra cAMP, forskolin); format: cell-based; conditions: CHO-K1 cells expressing human D2R/β-arrestin; agonist mode, 2.5 μM forskolin
Description: Eu-cAMP tracer solution (10 μl, PerkinElmer, 360 μl of Tracer in 17.64 ml kit buffer) and ULight-anti-cAMP solution (10 μl, 120 μL antibody in 17.88 ml kit buffer) was then added to each well.

[5] = biological target: D2 receptor (Homo sapiens (Human), UniProt P14416); test: D2 radioligand binding assay
[6] = CHO-K1 cells expressing human D2R/β-arrestin, antagonist mode, 2.5 μM forskolin and 2.7 nM quinpirole
[7] = CHO-K1 cells expressing human D2R/β-arrestin, antagonist mode, quinpirole 130 nM

Sequence of D2 receptor (P14416 whole entry): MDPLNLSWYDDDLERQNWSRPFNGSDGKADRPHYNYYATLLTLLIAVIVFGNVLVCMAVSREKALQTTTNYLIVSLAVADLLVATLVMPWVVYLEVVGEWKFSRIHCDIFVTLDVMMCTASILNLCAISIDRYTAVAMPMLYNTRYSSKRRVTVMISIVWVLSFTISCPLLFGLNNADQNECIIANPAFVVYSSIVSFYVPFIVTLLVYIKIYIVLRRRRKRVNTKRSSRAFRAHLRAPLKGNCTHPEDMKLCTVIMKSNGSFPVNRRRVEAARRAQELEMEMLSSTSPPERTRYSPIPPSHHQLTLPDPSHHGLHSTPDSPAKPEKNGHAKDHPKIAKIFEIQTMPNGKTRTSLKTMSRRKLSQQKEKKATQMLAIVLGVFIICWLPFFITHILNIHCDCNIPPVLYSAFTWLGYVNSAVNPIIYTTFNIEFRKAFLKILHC
T1 sequence (P14416 whole entry): as above

EC50 [1]	IC50 [2, 6]	IC50 [3, 7]	EC50 [4]	Ki [5]	SMILES	IC50 [2]	IC50 [3]
> 30000 nM	< 100 nM	< 100 nM	> 30000 nM	< 100 nM	CC(=O)NC1(C)CCN(C[C@H]2COc3ccc(Br)cc3O2)CC1 [Compound 211, (S)—N-(1-((7-bromo-2,3-dihydrobenzo[b][1,4]dioxin-2-yl)methyl)-4-methylpiperidin-4-yl)acetamide]	–	–
> 30000 nM	> 30000 nM	1000 to 10000 nM	< 100 nM	1000 to 10000 nM	CC1(Oc2ccc(Cl)cc2)CCN(CCOc2ccccc2)C1 (stereo not shown) [Compound 1, 3-(4-chlorophenoxy)-3-methyl-1-(2-phenoxyethyl)pyrrolidine]	–	–
100 to 1000 nM	> 30000 nM	100 to 1000 nM	< 100 nM	100 to 1000 nM	CN(C)C(=O)C1(C)CCN(C[C@H]2COc3ccccc3O2)CC1 [Compound 205, (S)-1-((2,3-dihydrobenzo[b][1,4]dioxin-2-yl)methyl)-N,N,4-trimethylpiperidine-4-carboxamide]	–	–
100 to 1000 nM	> 30000 nM	< 100 nM	< 100 nM	100 to 1000 nM	CC(=O)NC1(C)CCN(C[C@H]2COc3ccccc3O2)CC1 [Compound 208, (S)—N-(1-((2,3-dihydrobenzo[b][1,4]dioxin-2-yl)methyl)-4-methylpiperidin-4-yl)acetamide]	–	–
> 30000 nM	> 30000 nM	10000 to 30000 nM	100 to 1000 nM	10000 to 30000 nM	CC1(Oc2ccccn2)CCN(CCOc2ccc(C(F)(F)F)cc2)CC1 [Compound 164, 2-((4-methyl-1-(2-(4-(trifluoromethyl)phenoxy)ethyl)piperidin-4-yl)oxy)pyridine]	–	–
< 100 nM	> 30000 nM	> 30000 nM	< 100 nM	< 100 nM	CC1(Oc2ccc(Cl)cc2)CCN(CCOc2ccccc2F)CC1 [Example 86, 4-(4-chlorophenoxy)-1-(2-(2-fluorophenoxy)ethyl)-4-methylpiperidine]	–	–
> 30000 nM	> 30000 nM	1000 to 10000 nM	< 100 nM	1000 to 10000 nM	CC1(Oc2cccc(C(F)(F)F)c2)CCN(CCOc2ccccc2)C1 (stereo not shown) [Example 55, 3-methyl-1-(2-phenoxyethyl)-3-(3-(trifluoromethyl)phenoxy)pyrrolidine]	–	–
> 30000 nM	100 to 1000 nM	1000 to 10000 nM	> 30000 nM	100 to 1000 nM	CC1(Oc2ccc(Cl)cc2)CCN(CCCCOc2ccccc2F)C1 (stereo not shown) [Compound 27, 3-(4-chlorophenoxy)-1-(4-(2-fluorophenoxy)butyl)-3-methylpyrrolidine]	–	–
< 100 nM	> 30000 nM	< 100 nM	< 100 nM	100 to 1000 nM	CC1(C(=O)N2CCCC2)CCN(C[C@H]2COc3ccccc3O2)CC1 [Compound 206, (S)-(1-((2,3-dihydrobenzo[b][1,4]dioxin-2-yl)methyl)-4-methylpiperidin-4-yl)(pyrrolidin-1-yl)methanone]	–	–
> 30000 nM	< 100 nM	100 to 1000 nM	> 30000 nM	100 to 1000 nM	CC1(Oc2ccc(Cl)cc2)CCCN(CCOc2ccc3scnc3c2)C1 (stereo not shown) [Example 99, 5-(2-(3-(4-chlorophenoxy)-3-methylpiperidin-1-yl)ethoxy)benzo[d]thiazole]	–	–
> 30000 nM	< 100 nM	100 to 1000 nM	> 30000 nM	–	CC1(Oc2ccc(Cl)cc2)CCCN(CCOc2ccccc2Cl)C1 (stereo not shown) [Example 97, 3-(4-chlorophenoxy)-1-(2-(2-chlorophenoxy)ethyl)-3-methylpiperidine]	–	–
> 30000 nM	> 30000 nM	100 to 1000 nM	< 100 nM	–	CC1(Oc2ccc(Cl)cc2)CCN(CCOc2ccccc2F)C1 (stereo not shown) [Compound 9, 3-(4-chlorophenoxy)-1-(2-(2-fluorophenoxy)ethyl)-3-methylpyrrolidine]	–	–

The next lines start with the compound.

SMILES	EC50 [1]	IC50 [2, 6]	IC50 [3, 7]	EC50 [4]	Ki [5]	IC50 [2]	IC50 [3]
CC(=O)NC1(C)CCN(C[C@H]2COc3ccc(F)cc3O2)CC1 [Compound 210, (S)—N-(1-((7-fluoro-2,3-dihydrobenzo[b][1,4]dioxin-2-yl)methyl)-4-methylpiperidin-4-yl)acetamide]	100 to 1000 nM	> 30000 nM	100 to 1000 nM	< 100 nM	100 to 1000 nM	–	–
CC1(Oc2ccc(Cl)cc2)CCN(CCn2ccccc2=O)C1 (stereo not shown) [Compound 7, 1-(2-(3-(4-chlorophenoxy)-3-methylpyrrolidin-1-yl)ethyl)pyridin-2(1H)-one]	> 30000 nM	> 30000 nM	> 30000 nM	> 30000 nM	10000 to 30000 nM	–	–
Fc1ccccc1OCCN1CCC2(CC1)CCN2c1ccc(Cl)cc1 [Compound 137, 1-(4-chlorophenyl)-7-(2-(2-fluorophenoxy)ethyl)-1,7-diazaspiro[3.5]nonane]	> 30000 nM	< 100 nM	< 100 nM	> 30000 nM	< 100 nM	–	–
COC1(C)CCN(CCOc2ccccc2C(F)(F)F)CC1 [Compound 123, 4-methoxy-4-methyl-1-(2-(2-(trifluoromethyl)phenoxy)ethyl) piperidine]	> 30000 nM	100 to 1000 nM	100 to 1000 nM	> 30000 nM	< 100 nM	–	–
CC1(Oc2ccccc2)CC2CCC(C1)N2CCOc1ccccc1C(F)(F)F (stereo not shown) [Example 78, 3-Methyl-3-phenoxy-8-(2-(2-(trifluoromethyl)phenoxy)ethyl)-8-azabicyclo[3.2.1]octane]	> 30000 nM	–	–	10000 to 30000 nM	100 to 1000 nM	1000 to 10000 nM	100 to 1000 nM
CN(c1ccccc1)C1(C)CCN(CCOc2ccccc2C(F)(F)F)CC1 [Example 112]	> 30000 nM	–	–	100 to 1000 nM	100 to 1000 nM	> 30000 nM	100 to 1000 nM
CC1(Oc2ccc(Cl)cc2)CCCN(CCOc2ccccc2)C1 (stereo not shown) [Example 96, 3-(4-chlorophenoxy)-3-methyl-1-(2-phenoxyethyl)piperidine]	> 30000 nM	< 100 nM	100 to 1000 nM	> 30000 nM	100 to 1000 nM	–	–
CC1(O)CCN(CC2COc3ccccc3O2)CC1 (stereo not shown) [Compound 140, 1-((2,3-dihydrobenzo[b][1,4]dioxin-2-yl)methyl)-4-methylpiperidin-4-ol]	1000 to 10000 nM	> 30000 nM	100 to 1000 nM	< 100 nM	10000 to 30000 nM	–	–
CC1(Oc2ccccc2)CCN(CCOc2ccccc2OC(F)(F)F)CC1 [Example 110, 4-methyl-4-phenoxy-1-(2-(2-(trifluoromethoxy)phenoxy)ethyl) piperidine]	> 30000 nM	> 30000 nM	100 to 1000 nM	< 100 nM	< 100 nM	–	–
CC1(Oc2ccccc2)CCN(CCOc2ccc(C(F)(F)F)cc2)CC1 [Example 68]	> 30000 nM	> 30000 nM	> 30000 nM	< 100 nM	100 to 1000 nM	–	–
FC(F)(F)c1ccccc1OCCN1CCC2(CCCN2c2ccc(Cl)cc2)CC1 [Compound 135, 1-(4-Chlorophenyl)-8-(2-(2-(trifluoromethyl)phenoxy)ethyl)-1,8-diazaspiro[4.5]decane]	> 30000 nM	< 100 nM	< 100 nM	> 30000 nM	< 100 nM	–	–
CC1(NC(=O)C2CC2)CCN(C[C@H]2COc3ccccc3O2)CC1 [Compound 209, (S)—N-(1-((2,3-dihydrobenzo[b][1,4]dioxin-2-yl)methyl)-4-methylpiperidin-4-yl)cyclopropanecarboxamide]	> 30000 nM	> 30000 nM	< 100 nM	< 100 nM	100 to 1000 nM	–	–
CNC(=O)C1(C)CCN(CC2COc3ccccc3O2)CC1 (single isomer, unassigned) [Compound 202b, 1-((2,3-dihydrobenzo[b][1,4]dioxin-2-yl)methyl)-N,4-dimethylpiperidine-4-carboxamide]	> 30000 nM	100 to 1000 nM	100 to 1000 nM	100 to 1000 nM	1000 to 10000 nM	–	–
CC1(Oc2ccncc2)CCN(CCOc2ccccc2)C1 (stereo not shown) [Example 59, 4-((3-methyl-1-(2-phenoxyethyl)pyrrolidin-3-yl)oxy)pyridine]	10000 to 30000 nM	> 30000 nM	> 30000 nM	< 100 nM	1000 to 10000 nM	–	–
CC1(Oc2ccc(C(F)(F)F)cc2)CCN(CCOc2ccccc2)C1 (stereo not shown) [Example 54, 3-methyl-1-(2-phenoxyethyl)-3-(4-(trifluoromethyl)phenoxy)pyrrolidine]	> 30000 nM	10000 to 30000 nM	1000 to 10000 nM	100 to 1000 nM	1000 to 10000 nM	–	–
CC1(Oc2ccccc2)CCN(CCOc2ccccc2C(F)(F)F)CC1 [Example 91, 4-methyl-4-phenoxy-1-(2-(2-(trifluoromethyl)phenoxy)ethyl)piperidine]	> 30000 nM	> 30000 nM	< 100 nM	< 100 nM	100 to 1000 nM	–	–
C#CC1(Oc2ccc(Cl)cc2)CCN(CCOc2ccccc2C(F)(F)F)CC1 [Compound 193, 4-(4-chlorophenoxy)-4-ethynyl-1-(2-(2-(trifluoromethyl)phenoxy)ethyl)piperidine]	1000 to 10000 nM	> 30000 nM	1000 to 10000 nM	< 100 nM	–	–	–
